Test results taken from patent publication US6365602B1, “N-substituted naphthalene carboxamides as neurokinin-receptor antagonists” (Astra Zeneca AB, priority 1998, dated 2002).
Where a name gives a salt, the structure may show the parent alone.

Assays:
NK2 receptor = target: T1, NK2 receptor (Oryctolagus cuniculus, UniProt P79218); test: NK2 in vitro functional assay (Test E), rabbit pulmonary artery; format: cell-based; details: contraction to agonist BANK, negative log apparent dissociation constant, read-out: NK2pKb (converted)
T1 construct: Left and right pulmonary arteries are excised from male New Zealand white rabbits; from tissue; host or cells: rabbit pulmonary artery ring segments, endothelium removed
T1 sequence (P79218 1-384): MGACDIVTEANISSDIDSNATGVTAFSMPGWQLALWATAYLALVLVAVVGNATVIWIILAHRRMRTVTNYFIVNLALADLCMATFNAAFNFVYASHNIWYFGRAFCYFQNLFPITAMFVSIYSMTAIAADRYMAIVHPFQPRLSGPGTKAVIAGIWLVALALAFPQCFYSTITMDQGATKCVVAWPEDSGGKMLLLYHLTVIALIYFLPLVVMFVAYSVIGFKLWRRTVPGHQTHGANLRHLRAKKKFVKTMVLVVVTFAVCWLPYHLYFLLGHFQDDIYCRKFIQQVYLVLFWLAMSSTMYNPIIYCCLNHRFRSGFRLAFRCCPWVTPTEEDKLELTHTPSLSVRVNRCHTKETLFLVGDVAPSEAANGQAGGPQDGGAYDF
Source text: NK2 in vitro functional assay (Test E)
The ability of a Compound of the invention to antagonize the action of the agonist [β-ala^8] […] Am. J. Physiol. […] Left and right pulmonary arteries are excised from male New Zealand white rabbits. The pulmonary arteries are cut into ring segments and the intimal surface rubbed gently to remove the endothelium. Paired tissue segments of pulmonary artery are suspended between stainless steel stirrups for analyses of isometric tension development under standard conditions in physiological salt solution (PSS) containing indomethacin, (5 microM; to inhibit cyclooxygenase).
Initial tension placed on each tissue is 2 grams, which is maintained throughout the 45 minute equilibration period. Tissues are washed with PSS at 15 minute intervals. After the 45 minute equilibration period, 3×10^−2M KCl is applied for 60 minutes to test tissue viability. The tissues are then washed extensively for 30 minutes. The concentration of the Compound being tested is then added for 30 minutes before constructing a cumulative concentration-response curve with BANK. The curve is considered complete when each tissue fails to contract further for 2 consecutively increasing BANK concentrations. BaCl2 (3×10^−2M ) is then added to produce a maximum reference contraction.
(§1) Percent inhibition is determined when a tested Compound produces a statistically significant reduction in the magnitude of maximum contraction and is calculated as a percentage of the BaCl2 reference response. For antagonists behaving competitively, potencies are determined by calculating the negative log value of the apparent dissociation constant (pKB) for each concentration tested. Statistical significance is determined when the P value is <0.05 using the Student's t-test for paired comparisons.
(§2) NK1 and NK2 in vivo functional assay (Test F)

NK1 receptor = target: T2, NK1 receptor (Oryctolagus cuniculus, UniProt G1SEI7); test: Rabbit Pulmonary Artery: NK1 in vitro functional assay (Test D); format: cell-based; details: relaxation to agonist ASMSP, negative log apparent dissociation constant, read-out: NK1pKb (converted)
T2 construct: Paired tissue segments of pulmonary artery excised from male New Zealand white rabbits; from tissue; host or cells: rabbit pulmonary artery segments
Source text: Rabbit Pulmonary Artery: NK1 in vitro functional assay (Test D)
The ability of a Compound of the invention to antagonize the action of the agonist Ac-[Arg^6, Sar^9, Met(O2)^11] […] Am. J. Physiol. 268: L152-L159, 1995.
Paired tissue segments of pulmonary artery excised from male New Zealand white rabbits are suspended between stainless steel stirrups for analyses of isometric relaxation under standard conditions in physiological salt solution (PSS) containing indomethacin (5 microM; to block cyclooxygenase) and propranolol (1 microM; to block β adrenergic receptors).
Initial tension placed on each tissue is 2 grams, which is maintained throughout the 1.0 hour equilibration period. Tissues are washed with PSS at 15 minute intervals. At the 30 and 45 minute wash the following treatments are added: Thiorphan (1 microM; to block E.C.3.4.24.11), ((3R)-3-[(1S)-1-(3,4-Dichlorophenyl)-3-(4-[(R or S)-2-methylsulfinyl-phenyl]-piperidino)propyl]-2-ethyl-2,3-dihydroisoindol-1-one) (0.03 microM; to block NK^2 receptors as described in: “Aharony D., et al. Pharmacological Characterization of ZD7944: A Novel, Potent and orally-Active Non-Peptide Neurokinin-A (NK-2) Receptor Antagonist Eur. Respir. J. 12 (Suppl. 12):20S, 1998”), and the given concentration of the Compound being tested. After equilibration, phenylephrine (3 microM) is added to produce steady-state contraction of the tissue and a dose relaxation curve to ASMSP is constructed. […]
as §1, with “For antagonists behaving in a noncompetitive manner, the percent inhibition of relaxation is determined at a given concentration of the antagonist. Percent” for “Percent”, “reduction of” for “reduction in”, “maximum relaxation” for “maximum contraction”, “the papaverine” for “the BaCl2”, “reference response” for “reference response.”

NK2 receptors = target: T3, NK2 receptors (Cavia porcellus, UniProt Q64077); test: NK2 in vivo functional assay (Test F), BANK-induced bronchoconstriction; details: anesthetized guinea pig, agonist BANK, Dose Ratio of ED50 in presence/absence of antagonist
T3 construct: from tissue; host or cells: whole anesthetized guinea pig (airways, in vivo)
T3 sequence (Q64077 1-402): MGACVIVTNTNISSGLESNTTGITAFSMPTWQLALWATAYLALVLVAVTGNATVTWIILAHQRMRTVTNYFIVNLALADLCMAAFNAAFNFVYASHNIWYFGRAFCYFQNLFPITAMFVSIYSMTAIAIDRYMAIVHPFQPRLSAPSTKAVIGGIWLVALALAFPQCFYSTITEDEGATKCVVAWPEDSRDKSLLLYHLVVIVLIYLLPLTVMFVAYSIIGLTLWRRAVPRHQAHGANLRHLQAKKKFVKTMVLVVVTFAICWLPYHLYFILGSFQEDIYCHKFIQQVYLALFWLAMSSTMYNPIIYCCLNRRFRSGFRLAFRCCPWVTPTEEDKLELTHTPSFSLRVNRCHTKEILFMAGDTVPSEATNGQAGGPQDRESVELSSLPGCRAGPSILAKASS
Description: as §2
(§3) Exp. Ther., 1993, Vol 267(3), pp 1168-1175. The assay is carried out as follows.
(§4) Compounds are tested in anesthetized guinea pigs pretreated with i.v. indomethacin (10 mg/kg, 20 min.), propranolol (0.5 mg/kg, 15 min.), and thiorphan (10 mg/kg, 10 min).
(§5) […] The agonists used in these studies are ASMSP (Ac-[Arg^6, Sar^9, Met(O2)^11]-SP(6-11)) and BANK (β-ala-8 NKA4-10).
(§6) Administered i.v., ASMSP is selective for NK1 receptors, and BANK is selective for NK2 receptors. Maximum response is defined as zero conductance (GL, 1/Rp). ED50 values are calculated (the dose of agonist resulting in a reduction of GL to 50% of baseline), and converted to the negative logarithm (−logED50). The ED50 values, obtained in the presence (P) and absence (A) of antagonist, are used to calculate a Dose Ratio (P/A), an expression of potency. Data are expressed as mean±SEM and statistical differences were determined using ANOVA/Tukey-Kramer and Student's t-test, with p<0.05 considered statistically significant.

NK1 receptors = target: T4, NK1 receptors (Cavia porcellus, UniProt P30547); test: NK1 in vivo functional assay (Test F), ASMSP-induced bronchoconstriction; details: anesthetized guinea pig, agonist ASMSP, Dose Ratio of ED50 in presence/absence of antagonist
T4 construct: from tissue; host or cells: whole anesthetized guinea pig (airways, in vivo)
Description: as §2, §3, §4, §5, §6

T4 sequence (P30547 whole entry): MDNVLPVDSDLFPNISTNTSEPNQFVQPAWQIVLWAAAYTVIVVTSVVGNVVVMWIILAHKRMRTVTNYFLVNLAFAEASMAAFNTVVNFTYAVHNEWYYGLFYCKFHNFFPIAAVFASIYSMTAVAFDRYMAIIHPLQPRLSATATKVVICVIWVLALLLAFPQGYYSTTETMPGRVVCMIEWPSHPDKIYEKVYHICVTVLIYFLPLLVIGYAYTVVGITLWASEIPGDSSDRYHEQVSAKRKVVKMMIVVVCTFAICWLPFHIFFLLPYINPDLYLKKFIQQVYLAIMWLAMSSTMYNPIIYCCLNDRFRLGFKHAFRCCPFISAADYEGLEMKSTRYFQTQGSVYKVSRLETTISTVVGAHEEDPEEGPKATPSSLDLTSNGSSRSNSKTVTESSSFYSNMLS
T2 sequence (G1SEI7 1-407): as the sequence (P30547 whole entry) above, with G176S, S186E, A329G, F342L, D368E, P369A, T376N, V395M, S399F counted along it

Row | melting point | Kd (NK2 receptor) | Kd (NK1 receptor) | NK2 P/A (NK2 receptors; 2 hr) | NK1 P/A (NK1 receptors; 2 hr) | NK2 P/A (NK2 receptors; 1 hr) | NK1 P/A (NK1 receptors; 1 hr) | Compound
1 | 175 to 180 °C |  |  |  |  |  |  | CN(C[C@@H](CCN1CCC(c2ccc([S+](C)[O-])c(F)c2)CC1)c1ccc(Cl)c(Cl)c1)C(=O)c1cc(C#N)cc2ccccc12 (stereo partly drawn) (as salt: hydrochloride) [Example 60, N-[(S)-2-(3,4-Dichlorophenyl)-4-[4-[3-fluoro-4-methylsulfinylphenyl]-1-piperidinyl]butyl]-N-methyl-3-cyano-1-naphthamide]
2 |  | 5.5 nM | 1.02 nM | 21.4 (2 hr) | 32.5 (2 hr) |  |  | CN(C[C@@H](CCN1CCC(c2ccccc2[S@+](C)[O-])CC1)c1ccc(Cl)c(Cl)c1)C(=O)c1cc(C#N)cc2ccccc12 [Example 1, N-[(S)-2-(3,4-Dichlorophenyl)-4-[4-[(S)-2-methylsulfinylphenyl]-1-piperidinyl]butyl]-N-methyl-3-cyano-1-naphthamide]
3 |  | 2 nM | 7.94 nM | 83.0 (2 hr) | 25.0 (2 hr) |  |  | COc1ccc(C2CCN(CC[C@H](CN(C)C(=O)c3cc(C#N)cc4ccccc34)c3ccc(Cl)c(Cl)c3)CC2)c([S@+](C)[O-])c1.O=C(O)CC(O)(CC(=O)O)C(=O)O [Example 2, N-[(S)-2-(3,4-Dichlorophenyl)-4-[4-{4-methoxy-(S)-2-methylsulfinylphenyl}-1-piperidinyl]butyl]-N-methyl-3-cyano-1-naphthamide Citrate]
4 |  | 13.8 nM | 7.41 nM |  |  | 20.6 (1 hr) | 45.0 (1 hr) | CN(C[C@@H](CCN1CCC(N2CCCNC2=O)CC1)c1ccc(Cl)c(Cl)c1)C(=O)c1cc(C#N)cc2ccccc12 [Example 36, N-[(S)-2-(3,4-Dichlorophenyl)-4-[4-[tetrahydro-2-oxo-1(2H)-pyrimidinyl]-1-piperidinyl]-butyl]-N-methyl-3-cyano-1-naphthamide Citrate Hydrate (1:1:1.5)]
5 | 115 to 118 °C (dec.) |  |  |  |  |  |  | CCN(C[C@@H](CCN1CCC(c2ccccc2[S@+](C)[O-])CC1)c1ccc(Cl)c(Cl)c1)C(=O)c1cc(C#N)cc2ccccc12 [Example 69, N-[(S)-2-(3,4-Dichlorophenyl)-4-[4-[(S)-2-methylsulfinylphenyl]-1-piperidinyl]butyl]-N-ethyl-3-cyano-1-naphthamide]
